Measurements reported in PubChem BioAssay AID330 (DTP/NCI, 2004).
“And” between values parts separate entries of the source, which are not always exact repeats. Equal values may be shown once. Inconclusive results and toxic doses are left out. The calls were made as follows: active = survival T/C of 150% or more; inactive = T/C below 125% in these data.

System: P388 leukemia ip, CD2F1 mice, survival T/C
Experiment: NCI In Vivo Anticancer Drug Screen. Data for tumor model P388 Leukemia (intraperitoneal) in CD2F1 (CDF1) mice
Details: endpoint: median survival time, higher = longer survival
Summary of the method: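 Mice carrying the transplanted tumor received test compound or vehicle. Survival was recorded in each group, and the value is the treated-group measurement divided by that of the vehicle-treated control group.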

[1] = dose: 100.0 mg/kg/injection, schedule: Q04DX003 (ip), vehicle: Klucel (hydroxypropylcellulose) (HPC)
[2] = dose: 200.0 mg/kg/injection, schedule: Q04DX003 (ip), vehicle: Klucel (hydroxypropylcellulose) (HPC)
[3] = dose: 400.0 mg/kg/injection, schedule: Q04DX003 (ip), vehicle: Klucel (hydroxypropylcellulose) (HPC)
[4] = dose: 100.0 mg/kg/injection, schedule: Q04DX003 (ip), vehicle: saline with Tween-80
[5] = dose: 200.0 mg/kg/injection, schedule: Q04DX003 (ip), vehicle: saline with Tween-80
[6] = dose: 400.0 mg/kg/injection, schedule: Q04DX003 (ip), vehicle: saline with Tween-80
[7] = dose: 50.0 mg/kg/injection, schedule: Q01DX005 (ip), vehicle: saline with Tween-80
[8] = dose: 100.0 mg/kg/injection, schedule: Q01DX005 (ip), vehicle: saline with Tween-80
[9] = dose: 200.0 mg/kg/injection, schedule: Q01DX005 (ip), vehicle: saline with Tween-80

Measured: T/C

Cc1ccc(N=Nc2c(O)ccc3n[nH]nc23)cc1
inactive: dose: 50.0 mg/kg/injection, schedule: Q01DX009 (ip), vehicle: Klucel (hydroxypropylcellulose) (HPC) 99 % of control | dose: 100.0 mg/kg/injection, schedule: Q01DX009 (ip), vehicle: Klucel (hydroxypropylcellulose) (HPC) 101 % of control and 105 % of control | [1] 100 % of control | dose: 200.0 mg/kg/injection, schedule: Q01DX009 (ip), vehicle: Klucel (hydroxypropylcellulose) (HPC) 99 % of control and 109 % of control | [2] 100 % of control | dose: 400.0 mg/kg/injection, schedule: Q01DX009 (ip), vehicle: Klucel (hydroxypropylcellulose) (HPC) 100 % of control and 109 % of control | [3] 93 % of control

O=C(Nc1cccc(C(=O)Nc2ccc(S(=O)(=O)O)c3cc(S(=O)(=O)O)cc(S(=O)(=O)O)c23)c1)Nc1cccc(C(=O)Nc2cccc3c(S(=O)(=O)O)c(S(=O)(=O)O)cc(S(=O)(=O)O)c23)c1
inactive: dose: 60.0 mg/kg/injection, schedule: Q01DX005 (ip), vehicle: saline 88 % of control | dose: 120.0 mg/kg/injection, schedule: Q01DX005 (ip), vehicle: saline 99 % of control | dose: 240.0 mg/kg/injection, schedule: Q01DX005 (ip), vehicle: saline 93 % of control

CN1C(=O)OC(c2ccc(Cl)cc2)C1=O (stereo not given)
inactive: dose: 25.0 mg/kg/injection, schedule: Q01DX005 (ip), vehicle: Klucel (hydroxypropylcellulose) (HPC) 100 % of control | dose: 50.0 mg/kg/injection, schedule: Q01DX005 (ip), vehicle: Klucel (hydroxypropylcellulose) (HPC) 100 % of control | dose: 100.0 mg/kg/injection, schedule: Q01DX005 (ip), vehicle: Klucel (hydroxypropylcellulose) (HPC) 107 % of control | dose: 200.0 mg/kg/injection, schedule: Q01DX005 (ip), vehicle: Klucel (hydroxypropylcellulose) (HPC) 100 % of control

CN1c2ccccc2Sc2cc(N3c4ccccc4Sc4ccc(C(F)(F)F)cc43)c(C(F)(F)F)cc21
inactive: [1] 101 % of control | [2] 100 % of control | [3] 98 % of control

CC1C=CC(C)N(c2nnnn2C)N1c1nnnn1C (stereo not given)
inactive: [4] 116 % of control | [5] 106 % of control | [6] 100 % of control

c1ccc2nc(-c3cnc4ccccc4n3)cnc2c1
inactive: dose: 100.0 mg/kg/injection, schedule: Q04DX002 (ip), vehicle: saline with Tween-80 95 % of control | dose: 200.0 mg/kg/injection, schedule: Q04DX002 (ip), vehicle: saline with Tween-80 90 % of control

COc1ccc(C=NCCN=Cc2ccc(OC)cc2)cc1
inactive: dose: 25.0 mg/kg/injection, schedule: Q04DX003 (ip), vehicle: saline with Tween-80 100 % of control | dose: 50.0 mg/kg/injection, schedule: Q04DX003 (ip), vehicle: saline with Tween-80 109 % of control | [4] 108 % of control | [5] 110 % of control

CC(/C=C/c1ccc(Cl)cc1)=N\NC(N)=S
inactive: dose: 7.5 mg/kg/injection, schedule: Q01DX005 (ip), vehicle: saline with Tween-80 100 % of control | dose: 15.0 mg/kg/injection, schedule: Q01DX005 (ip), vehicle: saline with Tween-80 120 % of control | dose: 30.0 mg/kg/injection, schedule: Q01DX005 (ip), vehicle: saline with Tween-80 124 % of control

CCOC(OCC)c1ccc(-n2c(N)c(C#N)cnc2=S)c2c1OC2=NC=C(C#N)C#N
inactive: dose: 50.0 mg/kg/injection, schedule: Q01DX009 (ip), vehicle: saline 112 % of control | dose: 100.0 mg/kg/injection, schedule: Q01DX009 (ip), vehicle: saline 102 % of control | dose: 200.0 mg/kg/injection, schedule: Q01DX009 (ip), vehicle: saline 100 % of control

C#CC1(OC(=O)Nc2cccc(Cl)c2)CCCCC1
inactive: dose: 12.5 mg/kg/injection, schedule: Q01DX009 (ip), vehicle: saline with Tween-80 91 % of control and 97 % of control | dose: 25.0 mg/kg/injection, schedule: Q01DX009 (ip), vehicle: saline with Tween-80 98 % of control and 110 % of control | dose: 50.0 mg/kg/injection, schedule: Q01DX009 (ip), vehicle: saline with Tween-80 102 % of control and 105 % of control and 90 % of control | dose: 100.0 mg/kg/injection, schedule: Q01DX009 (ip), vehicle: saline with Tween-80 106 % of control and 108 % of control | dose: 200.0 mg/kg/injection, schedule: Q01DX009 (ip), vehicle: saline with Tween-80 97 % of control | dose: 400.0 mg/kg/injection, schedule: Q01DX009 (ip), vehicle: saline with Tween-80 94 % of control

CCOc1cc2c(cc1C(C)c1ccc(Cl)cc1)OCO2 (stereo not given)
inactive: [7] 93 % of control | [8] 99 % of control | [9] 93 % of control

O=C1CC[C@H]2[C@@H]3N1c1ccccc1[C@@]31CCN3C/C(=C/CBr)[C@@H]2C[C@H]31
inactive: dose: 7.5 mg/kg/injection, schedule: Q01DX005 (ip), vehicle: Klucel (hydroxypropylcellulose) (HPC) 100 % of control | dose: 15.0 mg/kg/injection, schedule: Q01DX005 (ip), vehicle: Klucel (hydroxypropylcellulose) (HPC) 102 % of control

Cc1cc2c(cc1C)NC1=C(N2)OC(c2c[nH]c3ccc(COc4ccccc4)cc23)C1=O (stereo not given)
inactive: dose: 60.0 mg/kg/injection, schedule: Q01DX005 (ip), vehicle: saline with Tween-80 92 % of control | dose: 120.0 mg/kg/injection, schedule: Q01DX005 (ip), vehicle: saline with Tween-80 90 % of control | dose: 240.0 mg/kg/injection, schedule: Q01DX005 (ip), vehicle: saline with Tween-80 92 % of control

CC(C)C1=CC2=CCC3C(C)(C(N)=O)CCCC3(C)C2CC1CC#N (stereo not given)
inactive: [4] 95 % of control | [5] 91 % of control | [6] 91 % of control

CCOC(=O)Nc1cc2c(c(N)n1)N=C(c1ccc(C)cc1)CN2
inactive: dose: 1.0 mg/kg/injection, schedule: Q01DX005 (ip), vehicle: saline with Tween-80 109 % of control | dose: 3.0 mg/kg/injection, schedule: Q01DX005 (ip), vehicle: saline with Tween-80 109 % of control | dose: 6.0 mg/kg/injection, schedule: Q01DX005 (ip), vehicle: saline with Tween-80 121 % of control

COc1cc(C(CC(=O)O)CC(=O)O)cc(OC)c1OC
inactive: [7] 93 % of control | [8] 95 % of control | [9] 95 % of control

CCN(CC)c1ccc2cc(S(=O)(=O)c3ccc(Cl)cc3)c(=O)oc2c1
inactive: [7] 86 % of control | [8] 92 % of control

COc1ccc(/C=N/Nc2nnc3c4ccccc4n(C)c3n2)cc1
inactive: dose: 100.0 mg/kg/injection, schedule: Q01DX001 (ip), vehicle: saline with Tween-80 89 % of control | dose: 200.0 mg/kg/injection, schedule: Q01DX001 (ip), vehicle: saline with Tween-80 91 % of control | dose: 400.0 mg/kg/injection, schedule: Q01DX001 (ip), vehicle: saline with Tween-80 107 % of control

OCC1OC(n2cnc3cncnc32)C(O)C1O (stereo not given)
inactive: dose: 6.25 mg/kg/injection, schedule: Q01DX001 (ip), vehicle: saline 111 % of control | dose: 6.25 mg/kg/injection, schedule: Q04DX003 (ip), vehicle: saline 99 % of control | dose: 12.5 mg/kg/injection, schedule: Q01DX001 (ip), vehicle: saline 111 % of control | dose: 12.5 mg/kg/injection, schedule: Q04DX003 (ip), vehicle: saline 100 % of control | dose: 25.0 mg/kg/injection, schedule: Q01DX001 (ip), vehicle: saline 114 % of control | dose: 25.0 mg/kg/injection, schedule: Q04DX003 (ip), vehicle: saline 99 % of control | dose: 50.0 mg/kg/injection, schedule: Q04DX003 (ip), vehicle: saline 96 % of control and 97 % of control | dose: 100.0 mg/kg/injection, schedule: Q04DX003 (ip), vehicle: saline 100 % of control | dose: 200.0 mg/kg/injection, schedule: Q04DX003 (ip), vehicle: saline 104 % of control | dose: 400.0 mg/kg/injection, schedule: Q04DX003 (ip), vehicle: saline 104 % of control
